Results from US20020132801A1, “Drospirenone for hormone replacement therapy” (Schering Aktiengesellschaft, priority 2001, published 2002).

What was measured:
Format in all cases: physicochemical
[1] = Solubility in water and aqueous buffers; conditions: water and aqueous buffers at various pH values
[2] = Chemical stability under acid and alkaline conditions
[3] = In vitro dissolution from tablet, USP XXIII Paddle Method; conditions: drospirenone in micronized form in a pharmaceutical composition; rapid dissolution defined as at least 70% over about 30 minutes from 3 mg tablet in 900 ml water at 37° C., 50 rpm
Protocol: A micronized substance is such that a test batch (ca. 200 mg) of the particles, herein drospirenone particles, has a surface area of more than 10,000 cm^2/g, and has the following particle size distribution for drospirenone as determined under the microscope: not more than 2 particles in a given batch (ca. 200 mg) with a diameter of more than 30 μm, and preferably ≦20 particles with a diameter of ≧10 μm and ≦30 μm.

C[C@]12CCC(=O)C=C1[C@@H]1C[C@@H]1[C@H]1[C@@H]3[C@@H]4C[C@@H]4[C@@]4(CCC(=O)O4)[C@@]3(C)CC[C@@H]12 [drospirenone, 6β,7β;15β;16β-dimethylene-3-oxo-17α-preg-4-ene-21,17-carbolactone]
solubility [1]: sparingly soluble | stability under acid conditions ([2]; acid conditions): rearranged to an inactive isomer | stability under alkaline conditions ([2]; alkaline conditions): hydrolysed | in vitro dissolution of active compound from composition [3]: rapid dissolution
